Drawing on US10611750B2, “Tetrahydroquinoline compositions as bet bromodomain inhibitors” (FORMA Therapeutics, Inc., priority 2013, dated 2020), this text covers IC50 for 10 compounds.

Assay [1] deals with acute myelocytic leukemia (AML) cell line MV4-11. Briefly: Oncology cell growth assay (3-day proliferation, CellTiter-Glo). The class given is cell-based. The settings on record: Homo sapiens, MV4-11, 72 h, MV4-11 cells, 3000 cells/well, compounds listed under IC50 range headings, read-out: MV411 IC50 (gIC50, inhibition of proliferation). The method, boiled down:
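Luminescence from CellTiter-Glo served as the growth read-out after MV4-11 cells (3000/well) were cultured with compound for 72 hours. Final concentrations spanned 10 to 0.0045 μM in 3-fold steps. gIC50 values were derived by four-parameter logistic fitting relative to DMSO and cell-free controls.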

The target of assay [2] is T1, BRD4 Bromodomain 2 (BRD4 BD2) (Homo sapiens, UniProt O60885).
T1 construct: 333-460 were cloned, expressed, and purified to homogeneity
Nature of the assay: AlphaScreen binding assay, BRD4 BD2. The settings on record: His-tagged BRD4 BD2 100 nM, biotinylated H4 (1-21) K5/8/12/16 tetra-acetylated peptide 100 nM, compounds listed under IC50 range headings. The method, boiled down:
(§1)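 An AlphaScreen competition format was used with His-BRD4 BD1 or BD2 and biotin-H4 K5/8/12/16-acetyl peptide, each at matched final levels of 50 nM (BD1) or 100 nM (BD2). Incubation in HEPES/NaCl buffer with 0.1% BSA and 0.01% Triton X-100 ran ≥1 h before IC50 determination.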

In assay [3] the target is T2, BRD4 Bromodomain 1 (BRD4 BD1) (Homo sapiens, UniProt O60885).
T2 construct: 44-168 and BRD4 BD2
Briefly: AlphaScreen binding assay, BRD4 BD1. The following applies: His-tagged BRD4 BD1 50 nM, biotinylated H4 (1-21) K5/8/12/16 tetra-acetylated peptide 50 nM, compounds listed under IC50 range headings. Summed up:
as §1

Molecules are shown by their SMILES. Some results are limits rather than exact numbers.

Turning to `CC(=O)N1c2ccc(-c3cnn(C4CC4)c3)c(OC3CN(C(C)C)C3)c2CC[C@@H]1C` [I-254, (S)-1-(6-(1-cyclopropyl-1H-pyrazol-4-yl)-5-(1-isopropylazetidin-3-yloxy)-2-methyl-3,4-dihydroquinolin-1(2H)-yl)ethanone], the IC50 was greater than 1000 nM in assay [1], 50 to 500 nM in assay [2] and 1000 to 10000 nM in assay [3].
The corresponding values for `CC(=O)N1c2ccc(-c3cnn(C4CC4)c3)c(Oc3cc(C)ccn3)c2CC[C@@H]1C` [I-255, 1-[(2S)-6-(1-cyclopropyl-1H-pyrazol-4-yl)-2-methyl-5-[(4-methylpyridin-2-yl)oxy]-1,2,3,4-tetrahydroquinolin-1-yl]ethan-1-one] are less than 500 nM, less than 50 nM and 100 to 1000 nM.
For `CC(=O)N1c2ccc(-c3cnn(C4CC4)c3)c(Oc3cccc(C)n3)c2CC[C@@H]1C` [I-256, (S)-1-(6-(1-cyclopropyl-1H-pyrazol-4-yl)-2-methyl-5-(6-methylpyridin-2-yloxy)-3,4-dihydroquinolin-1 (2H)-yl)ethanone], in that order: less than 500 nM, less than 50 nM and 100 to 1000 nM.
For `CC(=O)N1c2ccc(-c3cnn(C4CC4)c3)c(Oc3nccc4ccccc34)c2CC[C@@H]1C` [I-257, (S)-1-(6-(1-cyclopropyl-1H-pyrazol-4-yl)-5-(isoquinolin-1-yloxy)-2-methyl-3,4-dihydroquinolin-1(2H)-yl)ethanone], in that order: less than 500 nM, less than 50 nM and 1000 to 10000 nM.
As to `CC(=O)N1c2ccc(-c3cnn(C4CCNCC4)c3)c(Oc3ccccc3F)c2CC[C@@H]1C` [I-258, (S)-1-(5-(2-fluorophenoxy)-2-methyl-6-(1-(piperidin-4-yl)-1H-pyrazol-4-yl)-3,4-dihydroquinolin-1 (2H)-yl)ethanone], the values for the IC50 in assay [1], in assay [2] and in assay [3] were less than 500 nM, less than 50 nM and 100 to 1000 nM, respectively.
Turning to `COC(=O)N1c2ccc(-c3cnn(C4CCNCC4)c3)c(Oc3ccccc3F)c2CC[C@@H]1C` [I-259, (S)-methyl 5-(2-fluorophenoxy)-2-methyl-6-(1-(piperidin-4-yl)-1H-pyrazol-4-yl)-3,4-dihydroquinoline-1(2H)-carboxylate], the IC50 is less than 500 nM in assay [1], less than 50 nM in assay [2] and 100 to 1000 nM in assay [3].
The corresponding values for `COC(=O)N1c2ccc(-c3cnn(C4CCNCC4)c3)c(Oc3ccc(F)cc3F)c2CC[C@@H]1C` [I-263, (S)-methyl 5-(2,4-difluorophenoxy)-2-methyl-6-(1-(piperidin-4-yl)-1H-pyrazol-4-yl)-3,4-dihydroquinoline-1(2H)-carboxylate] are less than 500 nM, less than 50 nM and 100 to 1000 nM.
In the case of `C[C@H]1CCc2c(ccc(-c3cnn(C4CNC4)c3)c2Oc2cccc(F)c2F)N1C(=O)C1CC1` [I-268, (S)-(6-(1-(azetidin-3-yl)-1H-pyrazol-4-yl)-5-(2,3-difluorophenoxy)-2-methyl-3,4-dihydroquinolin-1(2H)-yl)(cyclopropyl)methanone], the IC50 in assay [1] was less than 500 nM; in assay [2], less than 50 nM; in assay [3], 100 to 1000 nM.
The corresponding values for `COC(=O)N1c2ccc(-c3cnn(C4CNC4)c3)c(Oc3cccc(F)c3F)c2CC[C@@H]1C` [I-270, (S)-methyl 6-(1-(azetidin-3-yl)-1H-pyrazol-4-yl)-5-(2,3-difluorophenoxy)-2-methyl-3,4-dihydroquinoline-1(2H)-carboxylate] are less than 500 nM, less than 50 nM and 100 to 1000 nM.
As to `COC(=O)N1c2ccc(-c3cnn(C4CN(C)C4)c3)c(Oc3ccc(F)cc3)c2CC[C@@H]1C` [I-282, Methyl (S)-5-(4-fluorophenoxy)-2-methyl-6-(1-(1-methylazetidin-3-yl)-1H-pyrazol-4-yl)-3,4-dihydroquinoline-1(2H)-carboxylate], the results for the IC50 in assay [1], in assay [2] and in assay [3] were less than 500 nM, less than 50 nM and 100 to 1000 nM, respectively.
